# Data: patent US8987239B2, “19-nor-steroid derivatives with a 15α,16α-methylene group and a saturated 17,17-spirolactone ring, use thereof, and medicaments containing said derivatives” (Bayer Intellectual Property GmbH, priority 2007, dated 2015)
# Like-named read-outs stand apart in the source and are kept apart here.
# What was measured:
# progesterone receptor [1] = molecular target: T1, progesterone receptor (Homo sapiens (Human), UniProt P06401); experiment: Progestational action by transactivation test (CHO K1 reporter cells, luciferase); type: cell-based; settings: for Emax: read-out: In vitro Transactivation Progesterone receptor Agonisten Efficacy
# Description: 4. Determination of Progestational Action by Means of Transactivation Tests:
# The test compounds were added eight hours later, and the cells were incubated with the compounds for 16 hours. The tests were carried out in triplicate. At the end of incubation the medium containing the effector was removed and replaced with lysis buffer. After luciferase assay substrate (Promega, #E1501) had been added, the 96-well plates were then put in a microplate luminometer (Pherastar, BMG labtech), and the luminescence was measured. The IC50 values were evaluated using software for calculating dose-effect relations.
# Target sequence in this assay (P06401 679-913, species assumed): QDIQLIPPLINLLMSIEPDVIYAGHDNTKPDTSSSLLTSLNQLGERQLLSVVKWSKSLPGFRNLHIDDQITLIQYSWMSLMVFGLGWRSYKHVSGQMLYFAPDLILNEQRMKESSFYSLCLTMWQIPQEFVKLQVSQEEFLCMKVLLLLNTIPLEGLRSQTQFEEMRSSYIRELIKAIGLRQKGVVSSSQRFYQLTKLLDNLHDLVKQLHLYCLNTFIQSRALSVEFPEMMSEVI
# [2] = molecular target: mineralocorticoid receptor (Homo sapiens (Human), UniProt P08235); experiment: Mineralocorticoid receptor binding test (displacement of 3H-aldosterone); settings: cytosol from MR-expressing insect cells (Hi5), reference 3H-aldosterone
# From the text: 2. Mineralocorticoid Receptor Binding Test:
# progesterone receptor [3] = molecular target: T1, progesterone receptor; experiment: Progesterone receptor binding test (displacement of 3H-progesterone); settings: for Receptor binding Progesterone receptor Competition factor: CF relative to progesterone (=1), CF <1 means higher affinity; for CF PR/CF MR: ratio of competition factors, progesterone receptor to mineralocorticoid receptor; for IC50: read-out: Receptor binding Progesterone receptor IC50, cytosol from PR-expressing insect cells (Hi5), 3H-progesterone
# Target sequence in this assay (P06401 whole entry, species assumed): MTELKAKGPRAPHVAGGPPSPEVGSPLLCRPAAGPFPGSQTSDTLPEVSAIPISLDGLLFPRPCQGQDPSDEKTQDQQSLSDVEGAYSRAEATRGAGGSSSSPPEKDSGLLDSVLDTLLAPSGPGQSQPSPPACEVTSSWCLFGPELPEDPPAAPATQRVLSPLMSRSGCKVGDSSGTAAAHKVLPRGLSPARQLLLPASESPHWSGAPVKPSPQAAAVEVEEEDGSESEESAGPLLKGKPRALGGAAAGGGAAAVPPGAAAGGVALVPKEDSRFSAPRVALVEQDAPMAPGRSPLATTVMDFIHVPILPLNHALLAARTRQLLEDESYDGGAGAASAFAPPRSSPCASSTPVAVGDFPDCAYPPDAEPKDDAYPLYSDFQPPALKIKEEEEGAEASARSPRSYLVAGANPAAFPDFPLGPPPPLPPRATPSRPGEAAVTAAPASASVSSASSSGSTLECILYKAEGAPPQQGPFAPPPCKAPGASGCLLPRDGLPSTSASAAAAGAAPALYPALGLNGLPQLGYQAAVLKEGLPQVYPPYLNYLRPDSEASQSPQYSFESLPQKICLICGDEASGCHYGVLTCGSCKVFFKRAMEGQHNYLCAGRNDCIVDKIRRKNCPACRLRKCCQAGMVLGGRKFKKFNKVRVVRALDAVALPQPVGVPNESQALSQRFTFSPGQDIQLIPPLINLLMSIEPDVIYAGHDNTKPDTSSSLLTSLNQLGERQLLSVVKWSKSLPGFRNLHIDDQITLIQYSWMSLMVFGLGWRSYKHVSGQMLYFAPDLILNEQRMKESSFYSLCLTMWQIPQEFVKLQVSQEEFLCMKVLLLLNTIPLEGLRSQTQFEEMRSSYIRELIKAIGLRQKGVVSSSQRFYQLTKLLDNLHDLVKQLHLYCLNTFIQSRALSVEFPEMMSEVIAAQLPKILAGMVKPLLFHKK
# Description: Progesterone Receptor Binding Test:
# Using cytosol from progesterone receptor-expressing insect cells (Hi5), competitive binding to the progesterone receptor was determined from the ability to displace ^3H-progesterone as reference substance from the receptor.
# androgen receptor = androgen receptor (Homo sapiens (Human), UniProt P10275); experiment: Androgen receptor binding test (displacement of 3H-testosterone); settings: cytosol from AR-expressing insect cells (Hi5); for Receptor binding Androgen receptor Competition factor: reference 3H-testosterone; for IC50: read-out: Receptor binding Androgen receptor IC50, 3H-testosterone
# Description: Androgen Receptor Binding Test:
# The test was carried out as in 1, with the following modifications: cytosol from androgen receptor-expressing insect cells (Hi5) was used, and the reference substance was ^3H-testosterone.
# [4] = CHO K1 PR-LBD/Gal4 luciferase reporter cells, 16 hours incubation, read-out: In vitro Transactivation Progesterone receptor Agonisten EC50
# [5] = CHO K1 PR-LBD/Gal4 luciferase reporter cells, 16 hours incubation
# Sequence of mineralocorticoid receptor (P08235 whole entry, species assumed): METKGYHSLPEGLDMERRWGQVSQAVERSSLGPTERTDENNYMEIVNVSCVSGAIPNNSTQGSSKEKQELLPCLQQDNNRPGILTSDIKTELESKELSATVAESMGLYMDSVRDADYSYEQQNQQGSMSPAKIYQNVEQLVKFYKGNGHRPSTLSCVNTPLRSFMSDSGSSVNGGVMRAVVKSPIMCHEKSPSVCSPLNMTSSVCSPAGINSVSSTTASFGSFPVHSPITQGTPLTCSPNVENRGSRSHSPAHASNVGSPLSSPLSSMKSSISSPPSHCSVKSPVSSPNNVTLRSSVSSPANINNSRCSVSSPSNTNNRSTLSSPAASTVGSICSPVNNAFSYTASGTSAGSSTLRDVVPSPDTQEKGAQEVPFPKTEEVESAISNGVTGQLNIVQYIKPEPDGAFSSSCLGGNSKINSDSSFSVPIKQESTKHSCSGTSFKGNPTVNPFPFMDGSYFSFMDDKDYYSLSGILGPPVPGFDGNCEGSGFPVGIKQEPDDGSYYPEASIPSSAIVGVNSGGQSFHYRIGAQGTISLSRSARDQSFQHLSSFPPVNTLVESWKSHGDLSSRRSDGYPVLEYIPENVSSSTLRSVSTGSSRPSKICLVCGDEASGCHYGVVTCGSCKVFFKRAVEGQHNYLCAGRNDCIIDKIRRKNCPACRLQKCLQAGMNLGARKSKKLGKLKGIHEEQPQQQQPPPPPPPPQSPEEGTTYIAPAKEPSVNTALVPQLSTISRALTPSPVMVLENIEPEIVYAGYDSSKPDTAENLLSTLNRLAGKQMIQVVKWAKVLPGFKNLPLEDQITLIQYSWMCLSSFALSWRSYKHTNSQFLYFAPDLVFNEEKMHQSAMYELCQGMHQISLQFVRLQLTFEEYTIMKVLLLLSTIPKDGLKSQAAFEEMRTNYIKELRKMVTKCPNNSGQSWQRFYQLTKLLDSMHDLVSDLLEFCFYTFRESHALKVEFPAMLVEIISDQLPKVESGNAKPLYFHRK
# Sequence of androgen receptor (P10275 whole entry, species assumed, the tested form may be a part): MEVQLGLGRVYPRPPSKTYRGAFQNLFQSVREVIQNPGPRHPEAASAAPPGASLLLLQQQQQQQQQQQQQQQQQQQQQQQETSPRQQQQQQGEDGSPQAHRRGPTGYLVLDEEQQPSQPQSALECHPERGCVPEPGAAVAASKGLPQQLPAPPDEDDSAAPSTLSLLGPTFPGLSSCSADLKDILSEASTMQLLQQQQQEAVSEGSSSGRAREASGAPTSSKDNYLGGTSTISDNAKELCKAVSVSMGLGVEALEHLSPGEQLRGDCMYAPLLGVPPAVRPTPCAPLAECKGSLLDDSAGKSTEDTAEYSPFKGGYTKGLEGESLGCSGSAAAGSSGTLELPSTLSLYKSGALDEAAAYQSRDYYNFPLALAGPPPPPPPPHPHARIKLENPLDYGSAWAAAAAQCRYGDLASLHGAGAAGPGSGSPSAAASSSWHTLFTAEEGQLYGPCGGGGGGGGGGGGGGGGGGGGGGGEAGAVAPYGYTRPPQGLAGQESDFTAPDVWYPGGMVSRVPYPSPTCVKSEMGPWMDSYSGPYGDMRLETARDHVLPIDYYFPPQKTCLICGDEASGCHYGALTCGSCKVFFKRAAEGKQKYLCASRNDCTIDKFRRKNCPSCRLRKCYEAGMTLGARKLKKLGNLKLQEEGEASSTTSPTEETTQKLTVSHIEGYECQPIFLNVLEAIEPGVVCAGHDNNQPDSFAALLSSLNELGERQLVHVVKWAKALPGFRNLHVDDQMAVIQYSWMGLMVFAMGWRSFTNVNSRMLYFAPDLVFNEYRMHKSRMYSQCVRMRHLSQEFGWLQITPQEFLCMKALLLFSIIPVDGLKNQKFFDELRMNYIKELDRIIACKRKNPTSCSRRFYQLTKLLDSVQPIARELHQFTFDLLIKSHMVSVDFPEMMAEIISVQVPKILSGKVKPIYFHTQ
SMILES,EC50 (progesterone receptor [1]; [4]),"Emax (progesterone receptor [1]; CHO-K1, 16 h)",Receptor binding Mineralocorticoid receptor Competition factor [2],Emax (progesterone receptor [1]; [5]),Receptor binding Progesterone receptor Competition factor (progesterone receptor [3]),Receptor binding Androgen receptor Competition factor (androgen receptor),IC50 (androgen receptor),EC50 (progesterone receptor [1]),CF PR/CF MR (progesterone receptor [3]),IC50 (progesterone receptor [3])
C[C@]12CCC3C4CCC(=O)C=C4[C@@H]4C[C@@H]4C3C1C1CC1[C@@]21CCC(=O)O1 (stereo in doubt) [compound 9],1 nM,77.4%,–,–,–,–,–,–,–,–
"C[C@]12CCC(=O)C=C1[C@@H]1C[C@@H]1[C@H]1[C@@H]3[C@@H]4C[C@@H]4[C@@]4(CCC(=O)O4)[C@@]3(C)CC[C@@H]12 [A, 6β,7β-15β,16β-dimethylene-3-oxo-17-pregn-4-ene-21,17β-carbolactone, reference compound]",–,–,0.5,72.2%,2.7,–,–,–,–,–
"C[C@]12CCC3C4CCC(=O)C=C4CCC3C1C1CC1[C@@]21CCC(=O)O1 (stereo partly drawn) [Example 1, 17β-Hydroxy-15α,16α-methylene-19-nor-17α-pregna-4-en-3-one-21-carboxylic acid γ-lactone]",–,55.9%,1.8,–,–,110.0,6 nM,–,–,–
"CC1CC2=CC(=O)CCC2C2CC[C@@]3(C)C(C4CC4[C@@]34CCC(=O)O4)C12 (stereo partly drawn) [Example 3, 17β-Hydroxy-7α-methyl-15α,16α-methylene-19-nor-17α-pregna-4-en-3-one-21-carboxylicacid γ-lactone]",–,87%,1.3,–,–,2.8,61 nM,–,–,–
"CCC1CC2=CC(=O)CCC2C2CC[C@@]3(C)C(C4CC4[C@@]34CCC(=O)O4)C12 (stereo partly drawn) [Example 4, 17β-Hydroxy-7α-ethyl-15α,16α-methylene-19-nor-17α-pregna-4-en-3-one-21-carboxylic acid γ-lactone]",–,56.7%,1.2,–,1.74,5.6,74 nM,0.7 nM,1.45,33 nM
"C=CC1CC2=CC(=O)CCC2C2CC[C@@]3(C)C(C4CC4[C@@]34CCC(=O)O4)C12 (stereo partly drawn) [Example 5, 17β-Hydroxy-7α-vinyl-15α,16α-methylene-19-nor-17α-pregna-4-en-3-one-21-carboxylic acid γ-lactone]",–,66.1%,1.4,–,1.16,3.0,55 nM,3.4 nM,0.83,15 nM
"C[C@]12CCC3C4CCC(=O)C=C4CC(C4CC4)C3C1C1CC1[C@@]21CCC(=O)O1 (stereo partly drawn) [Example 6, 17β-Hydroxy-7α-cyclopropyl-15α,16α-methylene-19-nor-17α-pregna-4-en-3-one-21-carboxylic acid γ-lactone]",–,48.6%,1.6,–,2.65,6.3,78 nM,1 nM,1.66,51 nM
"C[C@]12CCC3C4CCC(=O)C=C4[C@H](CO)CC3C1C1CC1[C@@]21CCC(=O)O1 (stereo partly drawn) [Example 7, 17β-Hydroxy-6β-hydroxymethyl-15α,16α-methylene-19-nor-17α-pregna-4-en-3-one-21-carboxylic acid γ-lactone]",910 nM,–,2.1,22.8%,49.90,1000.0,10000 nM,–,23.76,1100 nM
"C[C@]12CCC3C4CCC(=O)C=C4C4(CC4)CC3C1C1CC1[C@@]21CCC(=O)O1 (stereo partly drawn) [Example 8, 6,6-(1,2-Ethanediyl)-17β-hydroxy-15α,16α-methylene-19-nor-17α-pregna-4-en-3-one-21-carboxylic acid γ-lactone]",–,69.7%,0.9,–,0.71,1.4,26 nM,0.1 nM,0.79,8.9 nM
"C[C@]12CCC3C4CCC(=O)C=C4C4CC4C3C1C1CC1[C@@]21CCC(=O)O1 (stereo partly drawn) [Example 9 (B), 17β-hydroxy-6α,7α-15α,16α-bismethylene-19-nor-17α-pregna-4-en-3-one-21-carboxylic acid γ-lactone]",–,–,–,107%,–,–,–,–,–,–
